Results from patent publication US12570659B2, “Bicyclic heteroaryl compounds useful as IRAK4 inhibitors” (BRISTOL-MYERS SQUIBB COMPANY, priority 2019, dated 2026).

Experiments:
IRAK4 = IRAK4 (Homo sapiens (Human), UniProt Q9NWZ3); assay: IRAK4 Inhibition Assay; assay type: biochemical; details: ATP 500 μM; IRAK4 0.6 nM; 60 min room temperature
Outline: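 Reaction started by combining IRAK4 with substrates and compound, run 60 min at room temperature and stopped with 35 mM EDTA. Fluorescent substrate and phosphorylated product were separated electrophoretically on a Caliper LabChip; inhibition normalized to no-enzyme (100%) and vehicle-only (0%) controls.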

[1] = tested on: TLR2 agonist-stimulated IL-6 in human whole blood; assay: IRAK4 Whole Blood Assay; assay type: cell-based; details: lipoteichoic acid 10 μg/mL, 5 hours, IL-6 levels
Method: Human whole blood containing the anti-coagulant ACD-A was plated in 384-well plate (25 μL/well) and incubated with compounds for 60 minutes at 37° C. in a 5% CO2 incubator. The blood was stimulated with a TLR2 agonist, 10 μg/mL final concentration of lipoteichoic acid (Invivogen, San Diego, CA) in 25 μL RPMI (Gibco) for 5 hours in a 5% CO2 incubator. At the end of the incubation, plates were centrifuged at 2300 rpm for 5 minutes. Supernatants were harvested and analyzed for IL-6 levels by Flow Cytometry beads assay (BD Biosciences, San Jose, CA).

JAK3 kinase = JAK3 kinase (Homo sapiens (Human), UniProt P52333); assay: JAK3 Homogeneous Time Resolved Fluorescence (HTRF) Assay; assay type: binding; details: for IC50: competition binding with fluorescein-labeled ATP competitive probe; for Ratio of JAK3 IC50 to IRAK4 IC50: selectivity for IRAK4 over JAK3
Outline: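 TR-FRET competition binding: 1 nM His- or GST-tagged JAK3 with 0.2 nM Tb-labeled anti-tag antibody, fluorescein ATP-competitive probe at its Kd, and compound for one hour. FRET read at 495/520 nm, normalized to no-compound signal. IC50 from 11 concentrations, 4-parameter logistic fit.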

Sequence of IRAK4 (Q9NWZ3 whole entry, species assumed): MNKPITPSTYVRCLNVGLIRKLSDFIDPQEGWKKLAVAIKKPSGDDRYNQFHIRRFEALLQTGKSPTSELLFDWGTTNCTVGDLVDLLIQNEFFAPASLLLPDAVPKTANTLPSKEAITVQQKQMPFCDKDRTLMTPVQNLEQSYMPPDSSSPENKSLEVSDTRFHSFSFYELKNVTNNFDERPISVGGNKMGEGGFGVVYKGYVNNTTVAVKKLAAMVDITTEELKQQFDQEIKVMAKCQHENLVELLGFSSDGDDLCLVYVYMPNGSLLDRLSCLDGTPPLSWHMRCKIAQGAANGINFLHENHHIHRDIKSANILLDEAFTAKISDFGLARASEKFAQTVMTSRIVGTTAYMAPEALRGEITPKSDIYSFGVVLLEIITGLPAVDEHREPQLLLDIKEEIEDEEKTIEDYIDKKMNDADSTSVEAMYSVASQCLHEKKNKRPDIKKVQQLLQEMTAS
Sequence of JAK3 kinase (P52333 whole entry): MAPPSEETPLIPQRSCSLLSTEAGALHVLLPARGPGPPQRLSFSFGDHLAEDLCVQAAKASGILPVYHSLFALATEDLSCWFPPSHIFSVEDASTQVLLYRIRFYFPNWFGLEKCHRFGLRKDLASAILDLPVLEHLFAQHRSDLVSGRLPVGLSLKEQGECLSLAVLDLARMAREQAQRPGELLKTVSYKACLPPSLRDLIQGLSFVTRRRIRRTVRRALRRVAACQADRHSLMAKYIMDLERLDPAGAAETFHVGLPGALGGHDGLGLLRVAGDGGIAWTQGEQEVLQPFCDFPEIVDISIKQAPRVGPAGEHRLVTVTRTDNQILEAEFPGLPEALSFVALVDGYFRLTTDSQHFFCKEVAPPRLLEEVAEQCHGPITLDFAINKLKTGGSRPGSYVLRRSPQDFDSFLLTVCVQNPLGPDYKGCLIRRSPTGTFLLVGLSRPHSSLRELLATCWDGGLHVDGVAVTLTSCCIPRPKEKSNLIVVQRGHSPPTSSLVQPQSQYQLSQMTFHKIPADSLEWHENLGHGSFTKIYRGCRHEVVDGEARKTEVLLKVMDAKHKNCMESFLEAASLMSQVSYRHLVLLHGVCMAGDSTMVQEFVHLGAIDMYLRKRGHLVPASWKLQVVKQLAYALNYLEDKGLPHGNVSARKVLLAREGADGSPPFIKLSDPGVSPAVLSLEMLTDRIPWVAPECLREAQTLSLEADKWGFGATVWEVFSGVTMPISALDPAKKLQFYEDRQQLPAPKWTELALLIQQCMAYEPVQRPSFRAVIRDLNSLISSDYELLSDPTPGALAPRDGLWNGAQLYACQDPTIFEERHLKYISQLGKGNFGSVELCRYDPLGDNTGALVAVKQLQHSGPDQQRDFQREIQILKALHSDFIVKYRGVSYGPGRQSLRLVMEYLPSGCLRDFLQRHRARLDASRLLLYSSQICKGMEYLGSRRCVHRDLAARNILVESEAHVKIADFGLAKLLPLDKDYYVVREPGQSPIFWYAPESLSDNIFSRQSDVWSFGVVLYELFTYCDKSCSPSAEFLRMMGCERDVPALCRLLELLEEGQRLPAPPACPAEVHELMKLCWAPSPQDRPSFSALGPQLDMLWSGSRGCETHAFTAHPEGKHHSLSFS

| SMILES | IC50 (IRAK4) [µM] | IC50 [1] [µM] | IC50 (JAK3 kinase) [µM] | Ratio of JAK3 IC50 to IRAK4 IC50 (JAK3 kinase) |
| --- | --- | --- | --- | --- |
| CC(=O)N[C@H]1CC[C@H](NC(=O)c2cnn3cc(-c4ccc(CO)nc4)cc3c2NC(C)C)CC1 [Example 73, N-((1r,4r)-4-acetamidocyclohexyl)-6-(6-(hydroxymethyl)pyridin-3-yl)-4-(isopropylamino)pyrrolo[1,2-b]pyridazine-3-carboxamide] | 0.0031 | 0.65 | > 50 | >16129 |
| CC(C)Nc1c(C(=O)NCCC(C)(C)O)cnn2cc(-c3ccncc3F)cc12 [Example 77, 6-(3-fluoropyridin-4-yl)-N-(3-hydroxy-3-methylbutyl)-4-(isopropylamino)pyrrolo[1,2-b]pyridazine-3-carboxamide] | 0.0043 | 1.31 | – | – |
| CC(C)Nc1c(C(=O)NC[C@@H](F)C(C)(C)O)cnn2cc(-c3ccc(N)nc3)cc12 [Example 45, (R)-6-(6-aminopyridin-3-yl)-N-(2-fluoro-3-hydroxy-3-methylbutyl)-4-(isopropylamino) pyrrolo[1,2-b]pyridazine-3-carboxamide] | 0.0079 | 4.68 | ~29 | ~3671 |
| COC(=O)N[C@H]1CC[C@H](NC(=O)c2cnn3cc(-c4cccnc4)cc3c2NC(C)C)CC1 [Example 49, methyl ((1r,4r)-4-(4-(isopropylamino)-6-(pyridin-3-yl)pyrrolo[1,2-b]pyridazine-3-carboxamido)cyclohexyl)carbamate] | 0.0113 | > 10 | > 50 | >4425 |
| CC(=O)N[C@H]1CC[C@H](NC(=O)c2cnn3c(Cl)c(-c4ccncc4)cc3c2NC(C)C)CC1 [Example 80, N-((1r,4r)-4-acetamidocyclohexyl)-7-chloro-4-(isopropylamino)-6-(pyridin-4-yl)pyrrolo[1,2-b]pyridazine-3-carboxamide] | 0.002 | 0.72 | ~35 | ~17500 |
| CC(C)Nc1c(C(=O)N[C@H]2CC[C@H](N)CC2)cnn2cc(-c3ccncc3)cc12 [Example 54, N-((1r,4r)-4-aminocyclohexyl)-4-(isopropylamino)-6-(pyridin-4-yl)pyrrolo[1,2-b]pyridazine-3-carboxamide] | 0.0091 | 1.22 | > 50 | >5495 |
| CC(C)Nc1c(C(=O)NC[C@@H](F)C(C)(C)O)cnn2cc(-c3cccc(C#N)c3)cc12 [Example 2, (R)-6-(3-cyanophenyl)-N-(2-fluoro-3-hydroxy-3-methylbutyl)-4-(isopropylamino) pyrrolo[1,2-b]pyridazine-3-carboxamide] | 0.012 | > 10 | – | – |
| CC(C)(O)CCNc1c(C(=O)NC[C@@H](F)C(C)(C)O)cnn2cc(-c3cccnc3)cc12 [Example 25, (R)—N-(2-fluoro-3-hydroxy-3-methylbutyl)-4-((3-hydroxy-3-methylbutyl)amino)-6-(pyridin-3-yl) pyrrolo[1,2-b]pyridazine-3-carboxamide] | 0.28 | – | > 50 | >179 |
| CC(C)Nc1c(C(=O)NC[C@@H](F)C(C)(C)O)cnn2cc(-c3ccc(F)cn3)cc12 [Example 18, (R)—N-(2-fluoro-3-hydroxy-3-methylbutyl)-6-(5-fluoropyridin-2-yl)-4-(isopropylamino)pyrrolo[1,2-b]pyridazine-3-carboxamide] | 0.012 | – | > 50 | >4167 |
| CC(C)Nc1c(C(=O)N[C@H]2CC[C@H](O)CC2)cnn2cc(-c3cccnc3)cc12 [Example 58, N-((1r,4r)-4-hydroxycyclohexyl)-4-(isopropylamino)-6-(pyridin-3-yl)pyrrolo[1,2-b]pyridazine-3-carboxamide] | 0.054 | – | > 50 | >926 |
| Cc1cnccc1-c1cc2c(NC(C)C)c(C(=O)NCCC(C)(C)O)cnn2c1 [Example 72, N-(3-hydroxy-3-methylbutyl)-4-(isopropylamino)-6-(3-methylpyridin-4-yl)pyrrolo[1,2-b]pyridazine-3-carboxamide] | 0.07 | – | > 50 | >714 |
| COc1cc(-c2cc3c(NC(C)C)c(C(=O)NCCC(C)(C)O)cnn3c2)c(F)cn1 [Example 78, 6-(5-fluoro-2-methoxypyridin-4-yl)-N-(3-hydroxy-3-methylbutyl)-4-(isopropylamino) pyrrolo[1,2-b]pyridazine-3-carboxamide] | 0.0091 | – | > 50 | >5495 |
| CC(C)Nc1c(C(=O)NC[C@@H](F)C(C)(C)O)cnc2cc(-c3ccc(=O)[nH]c3)nn12 [Example 123, (R)—N-(2-fluoro-3-hydroxy-3-methylbutyl)-7-(isopropylamino)-2-(6-oxo-1,6-dihydropyridin-3-yl)pyrazolo[1,5-a]pyrimidine-6-carboxamide] | 0.0049 | – | > 50 | >10204 |
| CC(C)Nc1c(C(=O)NC[C@@H](F)C(C)(C)O)cnn2cc(-c3cccc(CN4CCOCC4)c3)cc12 [Example 14, (R)—N-(2-fluoro-3-hydroxy-3-methylbutyl)-4-(isopropylamino)-6-(3-(morpholinomethyl)phenyl) pyrrolo[1,2-b]pyridazine-3-carboxamide] | 1.67 | – | > 10 | >6 |
| COc1ncccc1-c1cc2c(NC(C)C)c(C(=O)N[C@H]3CC[C@H](NC(C)=O)CC3)cnn2c1 [Example 59, N-((1r,4r)-4-acetamidocyclohexyl)-4-(isopropylamino)-6-(2-methoxypyridin-3-yl)pyrrolo[1,2-b]pyridazine-3-carboxamide] | 0.029 | – | ~33 | ~1138 |
| CC(C)Nc1c(C(=O)NCCC(C)(C)O)cnn2cc(-c3ccncc3)nc12 [Example 105, N-(3-hydroxy-3-methylbutyl)-8-(isopropylamino)-2-(pyridin-4-yl)imidazo[1,2-b]pyridazine-7-carboxamide] | 0.062 | – | > 50 | >806 |
| CC(C)Nc1c(C(=O)NC[C@@H](F)C(C)(C)O)cnn2cc(-c3ccc(F)cc3)nc12 [Example 104, (R)—N-(2-fluoro-3-hydroxy-3-methylbutyl)-2-(4-fluorophenyl)-8-(isopropylamino)imidazo[1,2-b]pyridazine-7-carboxamide] | 0.039 | – | > 10 | >256 |
| CC(C)Nc1c(C(=O)NC[C@@H](F)C(C)(C)O)cnn2cc(-c3ccnc(N4CCOCC4)c3F)cc12 [Example 53, (R)-6-(3-fluoro-2-morpholinopyridin-4-yl)-N-(2-fluoro-3-hydroxy-3-methylbutyl)-4-(isopropylamino)pyrrolo[1,2-b]pyridazine-3-carboxamide] | 0.1 | – | ~50 | ~500 |
| CC(C)Nc1c(C(=O)NC[C@@H](F)C(C)(C)O)cnn2cc(-c3ccncc3)nc12 [Example 100, (R)—N-(2-fluoro-3-hydroxy-3-methylbutyl)-8-(isopropylamino)-2-(pyridin-4-yl)imidazo[1,2-b]pyridazine-7-carboxamide] | 0.015 | – | > 50 | >3333 |
| CC(C)Nc1c(C(=O)NC[C@@H](F)C(C)(C)O)cnc2cc(-c3cccc(=O)[nH]3)nn12 [Example 145, (R)—N-(2-fluoro-3-hydroxy-3-methylbutyl)-7-(isopropylamino)-2-(6-oxo-1,6-dihydropyridin-2-yl) pyrazolo[1,5-a]pyrimidine-6-carboxamide] | 0.3 | – | > 50 | >167 |
| CC(C)Nc1c(C(=O)NC[C@@H](F)C(C)(C)O)cnc2cc(-c3cncc(C(C)(C)O)c3)nn12 [Example 150, (R)—N-(2-fluoro-3-hydroxy-3-methylbutyl)-2-(5-(2-hydroxypropan-2-yl)pyridin-3-yl)-7-(isopropylamino)pyrazolo[1,5-a]pyrimidine-6-carboxamide] | 0.56 | – | > 10 | >18 |
| CC(=O)N[C@H]1CC[C@H](NC(=O)c2cnn3cc(-c4ccc(C(N)=O)cc4F)cc3c2NC(C)C)CC1 [Example 76, N-((1r,4r)-4-acetamidocyclohexyl)-6-(4-carbamoyl-2-fluorophenyl)-4-(isopropylamino) pyrrolo[1,2-b]pyridazine-3-carboxamide] | 0.092 | – | > 50 | >543 |
| CC(C)(O)CCNc1c(C(=O)NC[C@@H](F)C(C)(C)O)cnn2cc(-c3cccnc3F)cc12 [Example 22, (R)—N-(2-fluoro-3-hydroxy-3-methylbutyl)-6-(2-fluoropyridin-3-yl)-4-((3-hydroxy-3-methylbutyl)amino)pyrrolo[1,2-b]pyridazine-3-carboxamide] | 0.18 | – | > 50 | >278 |
